Reference: patent US20120010179A1, “Methods of using a thiazole derivative” (priority 2006, published 2012)

What was measured:
patients with COPD = experiment: Pharmacodynamic and safety assessments (ECG, vital signs, serum potassium, adverse events, laboratory), Example 2; type: in vivo, human
Description: Twelve-lead electrocardiograms (ECGs) were conducted after the subject had been resting and supine for ≧3 minutes. In addition to screening and pre-treatment baseline (Day 0) measurements, ECGs were also recorded at specific times during the treatment period. All 12-lead ECG monitors used for this study were calibrated and standardized. The ventricular rate, PR interval (the time elapsing between the beginning of the P wave and the beginning of the QRS interval in an electrocardiogram, corresponding to the electrical activity through the atria), QRS interval (the movement of electrical impulses through the ventricles), QT/QTc interval (the QT interval measures the time between the start of the Q wave and the end of the T wave in the heart's electrical cycle; QTc is a corrected QT interval, as determined by Fridericia's formula [QTcF] and Bazett's formula [QTcB]), and the overall ECG interpretation (normal or abnormal) were documented. Measurements were recorded prior to collection of any blood samples, where applicable. At least three original copies of each ECG (one each for the site, for the sponsor, and for the central ECG provider) were made. […]
Vital signs (heart rate and systolic blood pressure) were measured after the subject had been sitting for ≧3 minutes. […] Measurements were recorded prior to the collection of any blood samples, where applicable. […]

[1] = test system: guinea pig models of pulmonary disease; settings: cited from earlier work

## CCOc1ccc(-c2nc(-c3cccc(C(=O)O)n3)cs2)cc1OCC [Tetomilast, 2-(3,4-diethoxyphenyl)-4-(2-carboxy-6-pyridyl)thiazole]
Patients with COPD; oral tetomilast in combination with Advair Diskus 250/50
  changes in heart rate, systolic blood pressure, serum potassium, or QT interval versus placebo: No clinically meaningful changes
Patients with COPD; oral tetomilast with inhaled Advair Diskus 250/50
  differences in adverse events, serum chemistry, hematology, or urinalysis versus placebo: no clinically meaningful differences
[1]
  airway resistance and peak expiration flow: improve
